Entries after “also recorded” stand apart in the source; their conditions may differ. One block for each compound: values may come before it.
How the values were obtained:
[1] = Fluorescent color by laser irradiation; format: physicochemical
Excerpt: Regarding staining an organ tissue, the object in the organ to be visualized differs depending on the staining agent used. For example, curcumin and Red #3 are suitable for staining epithelial and glandular cells, as well as cancerous cells derived from them. On the other hand, Red #106 is suitable for staining connective tissue and capillaries. By laser irradiation, curcumin gives a green fluorescent color, while Red #3 and Red #106 give a red fluorescent color. Therefore, double staining with curcumin and Red #106 makes it easier to identify structure of cells in tissue by superimposing stained images. Accordingly, micro cancer tissue with diameter of about 1 mm and invasive cancer cell groups can be detected.
(§1) A multiphoton laser microscope of FVMPE-RS (Olympus) was used with the irradiation wavelength of 800 nm, wherein the laser irradiation was performed at 5.8˜48.2% of its full power output. A confocal laser microscope of FV1000 (Olympus) was used with the irradiation wavelength of 488 nm and 594 nm, wherein the laser irradiation at 488 nm was performed at 15˜29.4% of its full power output, and the laser irradiation at 594 nm was performed at 13˜13.5% of its full power output.

[2] = system: nerve fibers (myelin sheath); test: Vital staining of nerve fibers, multiphoton laser microscope; format: in vivo, mouse; conditions: intraperitoneal administration, FIG. 25
Excerpt: FIG. 25 is a diagram showing, at high magnification, examples of visualization with a laser multiphoton microscope of olfactory nerve fibers after vital staining by intraperitoneal administration of curcumin to a mouse.

STAT3 = biological target: T1, STAT3 (Homo sapiens, UniProt P40763); test: Staining of cells that overexpress a cancer-related gene product (STAT3); format: cell-based
T1 construct: endogenous in cells
Excerpt: For the visualization of expression patterns of cancer-related genes in living cells, the inventors stained a cancer-related gene product to chromatic color using staining agents containing edible dyes and photographed. An edible dye is a natural or artificial dye which has been permitted to be administered to human (For example, a dye for food coloring, or a dye that can be taken as supplements).
Specifically, a staining agent containing curcumins (C21H20O6) can be used to selectively stain a STAT3-based cancer-related gene product. In addition, a staining agent containing Red #3 (erythrosine) can be used to selectively stain the expression pattern of ras-based cancer-related gene.
More specifically, as a staining agent containing curcumins, a solution containing 1% by weight of curcumin was prepared. As a staining agent containing Red #3, a solution containing 1% by weight of phloxine was prepared. […]
When a staining agent containing curcumins is used, the expression of a STAT3-based cancer-related gene product in living cells can be visualized by staining. […] Accordingly, the nucleus surrounded by the cytoplasm is clearly visualized, making it clearer to be analyzed.

[3] = system: Auerbach's plexus in large intestine; test: Curcumin staining of freshly resected colon of a patient with Hirschsprung-like disease, multiphoton laser microscope; set-up: species or system human
Experimental: In an embodiment of the present invention, curcumin was administered to a freshly resected colon from a patient with Hirschsprung-like disease, and then a multiphoton laser microscope was used to visualize Auerbach's plexus. […] (FIG. 39). Therefore, intraoperative rapid diagnosis by a multiphoton laser microscope of freshly resected large intestine of a patient with Hirschsprung-like disease can be performed and appropriate surgical resection sites can be confirmed.

[4] = system: olfactory receptor neurons; test: Vital staining by coating onto nasal mucosa, laser microscope; format: in vivo, mouse; conditions: coating on nasal mucosa
Excerpt: FIG. 26 is a diagram showing, at high magnification, examples of visualization with a multiphoton laser microscope of olfactory receptor neurons, which are odor sensory cells, after vital staining by coating curcumin onto nasal mucosa of a mouse. […] Since a nucleus is not stained, it is viewed as a black negative image. By coating curcumin on nasal mucosa, olfactory receptor neuronal cells, which are odor sensing cells, can be visualized. Accordingly, olfactory disorders can be examined.

taste bud = test: Vital staining by coating onto tongue mucosa, laser microscope; format: in vivo, mouse; conditions: coating on tongue mucosa
Excerpt: FIG. 20 is a diagram showing, at high magnification, an example of visualization with a multiphoton laser microscope of a taste bud, which is a taste sensory device, after vital staining by coating curcumin onto tongue mucosa of a mouse. FIG. 20 to FIG. 22 are diagrams in which a taste bud, a taste sensory device, is visualized by a laser microscope after vital staining by coating curcumin on mouse tongue mucosa. FIG. 20 and FIG. 21 further show hematoxylin-eosin staining images of taste buds. The nuclei of sensory neuronal cells are not stained with curcumin, so that they are recognized as black negative images. By coating curcumin on oral mucosa, the neuronal cells of a taste bud, which is a taste sensory device, can be visualized. Accordingly, taste disorders can be examined in otolaryngologic field.

[5] = system: large intestine of a mouse (normal mucosal tissue); test: Vital staining of normal mouse large intestine, imaging with multiphoton or confocal laser microscope; format: in vivo; conditions: for structures stained in double staining: curcumin and Red #106 from lumen side, FIG. 4
Experimental: (§2) 100 mg of curcumin (Tokyo Kasei, cat. #C2302, purity 97.0%) was suspended in 5 mL of ethanol, and further diluted 10-fold with ethanol. It was mixed with the same amount of glycerin, and further diluted 10-fold with glycerin. The mixture was mixed with the same amount of purified water to obtain a staining solution of curcumin. Regarding Red #106, its staining solution is obtained by dissolving the powder in saline to achieve a concentration of 1 mg/mL.
(§3) C57BL/6N mice purchased from Japan SLC, Inc. were used in the tests. All tests were performed on male, 8-week-old mice weighing 20˜25 grams.
as §1

[6] = system: large intestine (cancer tumor site) of a colon cancer mouse; test: Vital staining of the cancer tumor site of a colon cancer mouse, laser microscope imaging; format: in vivo
Experimental: as §2, §3
Model mice with colon cancer were prepared by intraperitoneally administering 10 mg/kg of azoxymethane (AOM) dissolved in saline 4 times at weekly intervals to the C57BL/6N mice.
as §1

[7] = system: optic nerve and optic ganglion cells of retina; test: Vital staining of retina by intraperitoneal administration, laser microscope; format: in vivo, mouse; conditions: curcumin vital staining
Excerpt: FIG. 38 is a diagram of visualization of optic nerves and the optic ganglion cells of retina in vivo after vital staining by intraperitoneal administration of sulforhodamine 101 and curcumin to a mouse. (A) is a diagram of visualization of blood vessels fluorescently labeled with sulforhodamine 101 and a bundle of optic nerve fluorescence-labeled with curcumin. […] In an embodiment of the present invention, the nerve cell layer of retina can be visualized by vital staining with curcumin (FIG. 37). According to FIG. 37, it can be seen that in the layer structure of retina, the cell layer of optic ganglion, inner plexiform layer, bipolar cell layer, outer plexiform layer, and outer nuclear layer can be identified. It can be seen that the blood vessel travel and the optic nerve bundle in retina can be visualized at the same time by double staining with blood vessel staining dye (sulforhodamine 101) and curcumin (FIG. 38A). […] Accordingly, the present invention is very useful for detecting retinal diseases.

RAS = test: Staining of cells that overexpress a cancer-related gene product (RAS); format: cell-based
Excerpt: For the visualization of expression patterns of cancer-related genes in living cells, the inventors stained a cancer-related gene product to chromatic color using staining agents containing edible dyes and photographed. An edible dye is a natural or artificial dye which has been permitted to be administered to human (For example, a dye for food coloring, or a dye that can be taken as supplements). Specifically, a staining agent containing curcumins (C21H20O6) can be used to selectively stain a STAT3-based cancer-related gene product. In addition, a staining agent containing Red #3 (erythrosine) can be used to selectively stain the expression pattern of ras-based cancer-related gene. More specifically, as a staining agent containing curcumins, a solution containing 1% by weight of curcumin was prepared. As a staining agent containing Red #3, a solution containing 1% by weight of […] was prepared. As a staining agent containing curcumins, a curcumin solution 5˜100-fold diluted from its stock solution (for example, a liquid containing 5% curcumin solution, 45% glycerol, and 50% ethanol) with physiological saline can be used. […] Accordingly, the nucleus surrounded by the cytoplasm is clearly visualized, making it clearer to be analyzed.

[8] = isolated large intestine, stained from serosa side
[9] = normal large intestine, five-layer structure
[10] = normal mucosal tissue of large intestine, FIG. 3
[11] = stained and photographed from luminal side

T1 sequence (P40763 whole entry, species assumed): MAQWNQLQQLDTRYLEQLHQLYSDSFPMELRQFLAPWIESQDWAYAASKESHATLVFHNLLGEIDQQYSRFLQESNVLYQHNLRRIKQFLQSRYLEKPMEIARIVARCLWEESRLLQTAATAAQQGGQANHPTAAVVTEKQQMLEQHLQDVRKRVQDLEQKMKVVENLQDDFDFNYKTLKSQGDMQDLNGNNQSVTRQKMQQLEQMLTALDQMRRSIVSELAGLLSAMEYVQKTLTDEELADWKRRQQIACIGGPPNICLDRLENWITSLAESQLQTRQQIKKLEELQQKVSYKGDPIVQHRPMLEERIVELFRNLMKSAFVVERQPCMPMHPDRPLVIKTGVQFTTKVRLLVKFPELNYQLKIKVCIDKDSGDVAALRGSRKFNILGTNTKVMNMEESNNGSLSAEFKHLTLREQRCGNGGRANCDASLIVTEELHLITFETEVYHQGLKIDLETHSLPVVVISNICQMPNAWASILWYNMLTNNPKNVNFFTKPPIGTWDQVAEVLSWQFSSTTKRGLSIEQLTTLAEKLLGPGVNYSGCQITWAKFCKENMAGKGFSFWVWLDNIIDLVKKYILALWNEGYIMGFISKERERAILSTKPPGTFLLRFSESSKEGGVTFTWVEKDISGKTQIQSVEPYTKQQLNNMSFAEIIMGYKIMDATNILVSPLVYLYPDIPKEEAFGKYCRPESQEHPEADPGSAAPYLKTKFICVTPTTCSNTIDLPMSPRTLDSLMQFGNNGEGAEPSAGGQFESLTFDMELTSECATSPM

- fluorescent color [1]: green
- staining of cells that overexpress STAT3 (STAT3): can stain cells that overexpress STAT3
- staining of cytoplasm of olfactory receptor neurons and cilia having odor receptors [4]: stained positively
- staining of nucleus of olfactory receptor neurons [4]: not stained
SMILES: COc1cc(/C=C/C(=O)CC(=O)/C=C/c2ccc(O)c(OC)c2)ccc1O [curcumin]
- staining of myelin sheath [2]: can stain myelin sheath
- identification of the normal part and malformation part of Auerbach's plexus [3]: clearly identified
- staining of nuclei of sensory neuronal cells of taste bud (taste bud): not stained
- structures stained in double staining ([5]; isolated large intestine): cytoplasm of epithelial and glandular cells
- staining of nerve fibers of Auerbach's plexus [5, 8]: moderately
- staining of perikaryon of Auerbach's plexus [5, 8]: strongly
- staining of Auerbach's plexus inside muscle layer [5, 9]: strongly positively
- staining of epithelial and glandular cells in epithelial and glandular layers (1) [5, 9]: strongly positively
- staining of the smooth muscle in muscle layer (4) [5, 9]: slightly positively
- staining of the smooth muscle in muscularis mucosae (2) [5, 9]: moderately positively; also recorded: severely positively
- staining of the cytoplasm of epithelial cells and gland cells [5, 10]: stained
- staining of the nucleus of epithelial cells and gland cells [5, 10]: not stained
- staining of the nucleus in perikaryon of Meissner's plexus ([5]; stained from serosa side): does not stain the nucleus
- staining of the nucleus in perikaryon of Auerbach's plexus ([5]; stained from serosa side, high magnification): does not stain the nucleus
- staining of cancer cells relative to surrounding or normal tissue ([6]; cancer cells versus surrounding tissue / normal cells): darker than surrounding tissue
- staining of cytoplasm of cancer cells [6, 11]: severely positively
- staining of nuclei of cancer cells [6, 11]: negatively
- signal of the cytoplasm of optic nerve and small/large ganglion cells [7]: positive signal
- signal of the nucleus of optic nerve and small/large ganglion cells [7]: negative signal

- fluorescent color [1]: red
SMILES: O=C1OC2(c3ccccc31)c1cc(I)c(O)c(I)c1Oc1c2cc(I)c(O)c1I [Red #3, erythrosine]
- staining of cells that overexpress RAS (RAS): can stain

- fluorescent color [1]: red
SMILES: CCN(CC)c1ccc2c(-c3ccc(S(=O)(=O)[O-])cc3S(=O)(=O)[O-])c3ccc(=[N+](CC)CC)cc-3oc2c1.[Na+] [Red #106]
- structures stained in double staining ([5]; isolated large intestine): connective tissue, capillaries and cell membranes of epithelial and glandular cells
- staining of the network of capillaries surrounding the glandular structures of epithelial and glandular layers (1) [5, 9]: strongly positively
- staining of the smooth muscle in muscle layer (4) [5, 9]: slightly positively; also recorded: strongly stained; also recorded: strongly positively
- staining of the smooth muscle in muscularis mucosae (2) [5, 9]: slightly positively; also recorded: moderately positively
- staining of the wall of a thick blood vessel inside muscle layer [5, 9]: strongly positively; also recorded: strongly stained
